The conditions of this series: for aqueous solubility: pH 6.8.

≈ marks a conversion by molar mass, not a printed value. Non-standard residues stand in square brackets, D forms with d. Residues, ends and D or L forms follow the SMILES beside them. *: point of attachment. Fmoc = O=C(OCC1c2ccccc2-c2ccccc21)*; Cha = N[C@@H](CC1CCCCC1)C(=O)O; AMC = Cc1cc(=O)oc2cc(N*)ccc12

As to `CC(C)c1ccc(NC(=O)Cn2cnc3c2c(=O)n(C)c(=O)n3C)cc1`, the intrinsic clearance, human liver microsomes is 16.1 mL/min/kg; the intrinsic clearance, rat liver microsomes is 195 mL/min/kg; the aqueous solubility turned out to be 12.7 µg/mL (≈ 35.7 µM).

Take `O=C1N=C(N2CCN(c3ccccc3)CC2)S/C1=C\c1ccc(O)cc1O`: the MDR1-MDCK efflux ratio was 4.26 and the aqueous solubility stood at 0.85 µg/mL (≈ 2.23 µM).

As to `Cc1ccc(O)c(CN2CCC(c3nc4ccccc4o3)CC2)n1`, the MDR1-MDCK efflux ratio was determined as 0.688; the intrinsic clearance, human liver microsomes turned out to be 22.2 mL/min/kg; the intrinsic clearance, rat liver microsomes turned out to be 229 mL/min/kg.

For `COCCNC(=O)CN1CCN(c2nccn2-c2cccc(Cl)c2)CC1`, the MDR1-MDCK efflux ratio came to 52.5; the intrinsic clearance, human liver microsomes amounted to 5.04 mL/min/kg; the intrinsic clearance, rat liver microsomes came out at 353 mL/min/kg; the aqueous solubility was found to be 60.9 µg/mL (≈ 161 µM).

For the molecule `CC(C)(C)NC(=O)Cn1nc(C(c2ccccc2)c2ccccc2)oc1=O`, the MDR1-MDCK efflux ratio is 4.07; the intrinsic clearance, human liver microsomes worked out at 22.4 mL/min/kg; the intrinsic clearance, rat liver microsomes came to 747 mL/min/kg; the aqueous solubility worked out at 6.02 µg/mL (≈ 16.5 µM).

Turning to `Cc1cc2ccccc2n1CC(=O)N1CCc2ccc(O)cc2C1`, the MDR1-MDCK efflux ratio is 2.59; the intrinsic clearance, human liver microsomes is 25.3 mL/min/kg; the intrinsic clearance, rat liver microsomes turned out to be 456 mL/min/kg; the aqueous solubility was 12.4 µg/mL (≈ 38.8 µM).

Turning to `O=C(C1CCCN(c2ccc(Cl)nn2)C1)N1CCc2ccccc2C1` (stereo not given), the intrinsic clearance, human liver microsomes came out at 125 mL/min/kg; the intrinsic clearance, rat liver microsomes worked out at 1650 mL/min/kg; the aqueous solubility came out at 49.8 µg/mL (≈ 139 µM).

`CCc1nsc(N2CCS(=O)(=O)CC2)n1`: the intrinsic clearance, human liver microsomes is at most 4.74 mL/min/kg and the intrinsic clearance, rat liver microsomes is at most 10.7 mL/min/kg.

In the case of `Cc1ccc2oc([C@H]3CCN(Cc4cccs4)C3)nc2c1`, the MDR1-MDCK efflux ratio stood at 0.391; the intrinsic clearance, human liver microsomes was 127 mL/min/kg; the intrinsic clearance, rat liver microsomes was 2000 mL/min/kg; the aqueous solubility was 26.3 µg/mL (≈ 88.1 µM).

`CCOC(=O)N1CCc2cc(NC(=O)c3oc(C)cc3C)ccc21` had an intrinsic clearance, human liver microsomes of 11.5 mL/min/kg and an intrinsic clearance, rat liver microsomes of 118 mL/min/kg.

Consider `Cc1ccc(/C(N)=N/OC(=O)c2ccc3c(c2)OCCO3)cc1`, for which the aqueous solubility is 0.33 µg/mL (≈ 1.06 µM).

Regarding `Cc1ccsc1CN(C)C(=O)[C@@H]1CCCN1C(=O)NC(C)C`, the MDR1-MDCK efflux ratio is 23.7; the intrinsic clearance, human liver microsomes amounted to 13 mL/min/kg; the intrinsic clearance, rat liver microsomes was determined as 355 mL/min/kg; the aqueous solubility turned out to be 42.1 µg/mL (≈ 130 µM).

Consider `COc1cccc(CN2CCc3nc(-c4cnccn4)nc(O)c3C2)c1`, for which the intrinsic clearance, human liver microsomes is at most 4.74 mL/min/kg and the intrinsic clearance, rat liver microsomes is 26.6 mL/min/kg.

Take `O=c1[nH]c2ccccc2n1C1CCN(Cc2coc(-c3cccs3)n2)CC1`: the intrinsic clearance, human liver microsomes stood at 29.4 mL/min/kg and the intrinsic clearance, rat liver microsomes was 475 mL/min/kg.

Molecule `CN(C(=O)c1cccc(C(=O)O)c1)c1ccccc1` gave an intrinsic clearance, human liver microsomes of at most 4.74 mL/min/kg and an intrinsic clearance, rat liver microsomes of at most 10.7 mL/min/kg.

For `COc1cc2ncnc(Nc3cccc(O)c3)c2cc1OC`, the fraction unbound, human plasma amounted to 0.0987; the fraction unbound, rat plasma was determined as 0.0447; the intrinsic clearance, human liver microsomes was 22 mL/min/kg; the intrinsic clearance, rat liver microsomes worked out at 154 mL/min/kg.

For `O=C(Nc1ccc2[nH]ncc2c1)[C@H]1CCCNC1`, the MDR1-MDCK efflux ratio is 0.38; the intrinsic clearance, human liver microsomes is 14.5 mL/min/kg; the intrinsic clearance, rat liver microsomes was 343 mL/min/kg.

With `O=C(Nc1ccc(Cl)cn1)C1(c2cccc(Cl)c2)CC1`, the MDR1-MDCK efflux ratio came to 0.574 and the aqueous solubility stood at 0.33 µg/mL (≈ 1.07 µM).

Take `CCOc1cccc(CNCCc2c[nH]c3ccccc23)c1`: the MDR1-MDCK efflux ratio worked out at 0.628; the intrinsic clearance, human liver microsomes was 90.8 mL/min/kg; the intrinsic clearance, rat liver microsomes was determined as 1330 mL/min/kg; the aqueous solubility amounted to 73 µg/mL (≈ 248 µM).

Turning to `Cc1cnc(NC(=O)c2cc(S(=O)(=O)N(C)C)ccc2N2CCCC2)s1`, the MDR1-MDCK efflux ratio was found to be 19.9 and the aqueous solubility is 0.21 µg/mL (≈ 0.532 µM).

Consider `c1cn2cc(-c3ccc4cn[nH]c4c3)nc(Nc3ccc(N4CCOCC4)cc3)c2n1`, for which the aqueous solubility came out at 0.1 µg/mL (≈ 0.243 µM).

Regarding `Cc1noc(C)c1CS(=O)(=O)C1CCCc2ccccc21` (stereo not given), the MDR1-MDCK efflux ratio came out at 0.953; the intrinsic clearance, human liver microsomes is 192 mL/min/kg; the intrinsic clearance, rat liver microsomes was determined as 1400 mL/min/kg.

Consider `Cc1ccc2nc(C)c(-c3nc(C)nn3CCO)cc2c1`, for which the MDR1-MDCK efflux ratio came to 9.02; the intrinsic clearance, human liver microsomes was at most 4.74 mL/min/kg; the intrinsic clearance, rat liver microsomes was determined as 19.3 mL/min/kg; the aqueous solubility turned out to be 27 µg/mL (≈ 95.6 µM).

With `Cn1nc(-c2cn(Cc3ccc(CO)cc3)nn2)c2c(Cl)cccc21`, the MDR1-MDCK efflux ratio was found to be 5.12; the intrinsic clearance, human liver microsomes was determined as 10 mL/min/kg; the intrinsic clearance, rat liver microsomes was 190 mL/min/kg; the aqueous solubility was 19.2 µg/mL (≈ 54.3 µM).

For the molecule `Cc1ccc(C(=O)Nc2ccccc2-c2ccccc2)o1`, the MDR1-MDCK efflux ratio came out at 0.465; the intrinsic clearance, human liver microsomes worked out at 257 mL/min/kg; the intrinsic clearance, rat liver microsomes amounted to 503 mL/min/kg; the aqueous solubility amounted to 35.5 µg/mL (≈ 128 µM).

For `COc1cc2c(cc1OC)CN(C(=O)C1CCCN(C(=O)Nc3ccccc3)C1)CC2` (stereo not given), the MDR1-MDCK efflux ratio is 27; the intrinsic clearance, human liver microsomes is at most 4.74 mL/min/kg; the intrinsic clearance, rat liver microsomes amounted to 65.1 mL/min/kg; the aqueous solubility is 65.5 µg/mL (≈ 155 µM).

With `COCCN(C)c1ccc(CN2CCc3nn(C)c(=O)cc3C2)cn1`, the MDR1-MDCK efflux ratio was 3.02; the intrinsic clearance, human liver microsomes is at most 4.74 mL/min/kg; the intrinsic clearance, rat liver microsomes amounted to 22 mL/min/kg.

For `CCc1nc(C)cn2nc(-c3cc(=O)n4cc(C5CCN(C)CC5)cc(C)c4n3)cc12`, the MDR1-MDCK efflux ratio amounted to 3.62; the fraction unbound, human plasma is 0.0738; the fraction unbound, rat plasma stood at 0.0392; the intrinsic clearance, human liver microsomes was at most 4.74 mL/min/kg. The intrinsic clearance, rat liver microsomes amounted to 25.7 mL/min/kg and the aqueous solubility was 17.7 µg/mL (≈ 42.4 µM).

`Cc1cc(=O)oc2cc(NC(=O)[C@H](CCCCN)NC(=O)[C@H](CC3CCCCC3)NC(=O)OCC3c4ccccc4-c4ccccc43)ccc12` (Fmoc-[Cha]-Lys-{AMC}): the MDR1-MDCK efflux ratio was found to be 1.11; the intrinsic clearance, human liver microsomes is at most 4.74 mL/min/kg; the intrinsic clearance, rat liver microsomes was at most 10.7 mL/min/kg.

With `c1ccc(-c2cc3c(N4CCC(c5ncc[nH]5)CC4)ncnc3s2)cc1`, the MDR1-MDCK efflux ratio came to 17.8; the intrinsic clearance, human liver microsomes was determined as 117 mL/min/kg; the intrinsic clearance, rat liver microsomes was 1550 mL/min/kg; the aqueous solubility is 4.15 µg/mL (≈ 11.5 µM).

On to `O=C(NC1CCCCCC1)c1ccc(-c2cnco2)cc1`, for which the MDR1-MDCK efflux ratio came out at 0.516; the intrinsic clearance, human liver microsomes was 14.9 mL/min/kg; the intrinsic clearance, rat liver microsomes amounted to 90.4 mL/min/kg; the aqueous solubility came out at 9.2 µg/mL (≈ 32.4 µM).

Take `CCn1nc(Cc2ccc(OC)cc2)nc1Cc1sc(C)nc1C`: the MDR1-MDCK efflux ratio was determined as 2.11; the intrinsic clearance, human liver microsomes amounted to 21.4 mL/min/kg; the intrinsic clearance, rat liver microsomes stood at 233 mL/min/kg; the aqueous solubility was found to be 28.7 µg/mL (≈ 83.9 µM).

Take `CNc1nc(C)nc(N[C@H]2CCC[C@@H](C(=O)NCc3ccc(C#N)cc3C(F)(F)F)C2)n1`: the MDR1-MDCK efflux ratio was determined as 108; the intrinsic clearance, human liver microsomes is 18.4 mL/min/kg; the intrinsic clearance, rat liver microsomes worked out at 91.3 mL/min/kg.

Consider `NC(=O)c1cnc(N2CCc3[nH]nc(C(F)(F)F)c3C2)c(Cl)c1`, for which the MDR1-MDCK efflux ratio amounted to 7.33; the fraction unbound, human plasma was found to be 0.0968; the intrinsic clearance, human liver microsomes was at most 4.74 mL/min/kg.

Turning to `CCNc1cc2c(nn1)CCN(C(=O)Cn1ccc3ccccc31)C2`, the intrinsic clearance, human liver microsomes was at most 4.74 mL/min/kg and the intrinsic clearance, rat liver microsomes was 93.1 mL/min/kg.

`O=C(Cc1cccnc1)Nc1ncccc1Cl`: the MDR1-MDCK efflux ratio came out at 0.704; the intrinsic clearance, human liver microsomes is at most 4.74 mL/min/kg; the intrinsic clearance, rat liver microsomes was 31.1 mL/min/kg.

Consider `N#Cc1ccc2nc([C@H]3CCN(C4CCC4)C3)[nH]c2c1`, for which the MDR1-MDCK efflux ratio came out at 4.41; the intrinsic clearance, human liver microsomes turned out to be 7.26 mL/min/kg; the intrinsic clearance, rat liver microsomes stood at 68.4 mL/min/kg; the aqueous solubility was determined as 50.2 µg/mL (≈ 188 µM).

In turn, `CSC1(CNc2cncc(Cl)n2)CCOCC1` gave an intrinsic clearance, human liver microsomes of 10.2 mL/min/kg and an intrinsic clearance, rat liver microsomes of 528 mL/min/kg.

Regarding `Cc1nccc(NC(=O)CCc2ccncc2)c1Cl`, the MDR1-MDCK efflux ratio came to 0.826; the intrinsic clearance, human liver microsomes was at most 4.74 mL/min/kg; the intrinsic clearance, rat liver microsomes amounted to 73.1 mL/min/kg.

`NC(=O)Cn1c2ccccc2c2nc3ccccc3nc21` came in with an aqueous solubility of 0.15 µg/mL (≈ 0.543 µM).

In the case of `Cc1nc(N2CCc3c(ncn3C)C2)c2c(C)c(C)sc2n1`, the MDR1-MDCK efflux ratio turned out to be 1.94; the intrinsic clearance, human liver microsomes was found to be 94.2 mL/min/kg; the intrinsic clearance, rat liver microsomes amounted to 655 mL/min/kg; the aqueous solubility was 47.5 µg/mL (≈ 152 µM).

Take `Nc1nc(NCCNc2ncc(-c3ncc[nH]3)c(-c3ccc(Cl)cc3Cl)n2)ccc1[N+](=O)[O-]`: the aqueous solubility stood at 29.9 µg/mL (≈ 61.6 µM).

As for `O=C(CN1CCCC1=O)NCC1(CO)CCCC1`, the MDR1-MDCK efflux ratio was 2.26; the intrinsic clearance, human liver microsomes was at most 4.74 mL/min/kg; the intrinsic clearance, rat liver microsomes is at most 10.7 mL/min/kg.

The molecule `CC(=O)N1CCc2c(sc(NC(=O)C(C)C)c2-c2nc3ccccc3s2)C1` yielded an intrinsic clearance, human liver microsomes of 24.9 mL/min/kg and an intrinsic clearance, rat liver microsomes of 228 mL/min/kg.

Take `CC(C)n1cc(CN2CCC(c3nc(N(C)C)no3)CC2)cn1`: the MDR1-MDCK efflux ratio amounted to 1.79; the intrinsic clearance, human liver microsomes was at most 4.74 mL/min/kg; the intrinsic clearance, rat liver microsomes amounted to 179 mL/min/kg.

As to `Cc1cc(N2CCN(CC3CCN(C(=O)CC(C)C)CC3)CC2)n[nH]1`, the MDR1-MDCK efflux ratio is 9.48; the intrinsic clearance, human liver microsomes was determined as 7.34 mL/min/kg; the intrinsic clearance, rat liver microsomes was at most 10.7 mL/min/kg.

In the case of `Nc1nnc(-c2ccc3c(c2)OCCO3)o1`, the MDR1-MDCK efflux ratio is 0.657; the intrinsic clearance, human liver microsomes is at most 4.74 mL/min/kg; the intrinsic clearance, rat liver microsomes worked out at 61.4 mL/min/kg; the aqueous solubility was found to be 23.4 µg/mL (≈ 107 µM).

Consider `COc1ccc(-c2nn(C)c3ccccc23)c(OC)c1OC`, for which the MDR1-MDCK efflux ratio is 0.515; the intrinsic clearance, human liver microsomes was 95.4 mL/min/kg; the intrinsic clearance, rat liver microsomes came out at 1270 mL/min/kg.

For orientation: aqueous solubility means how much of the substance goes into solution per volume.

The record behind these values is the Biogen ADME set (Fang et al. 2023).
